Laboratory results from patent publication US9351974B2, “Substituted pteridinones for the treatment of cancer” (OSI Pharmaceuticals, LLC, priority 2011, dated 2016).

Target: T1, His-tagged full-length RSK2 (RPS6KA3) (Homo sapiens, UniProt P51812)
T1 construct: His-tagged full-length RSK2 (RPS6KA3, Invitrogen PV3323); His; purchased Invitrogen PV3323
Test: RSK2 Omnia Assay for compound IC50 determination
Assay type: biochemical
Details: ATP 15 μM, n=2, read-out: Mean RSK2 Biochem IC50
How it was run: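 Initial-rate slopes from continuous kinetic reads were fitted to a four-parameter equation for IC50 (n=2). Ki was then derived by Cheng-Prusoff assuming ATP-competitive inhibition. Reactions contained 15 μM ATP (Km 16.3 μM), 5 μM Omnia ST Peptide 6, and […] in 50 mM HEPES pH 7.5, 10 mM MgCl2, 1 mM DTT, 1% DMSO. Compounds spanned 11 threefold steps, […] final.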

T1 sequence (P51812 whole entry): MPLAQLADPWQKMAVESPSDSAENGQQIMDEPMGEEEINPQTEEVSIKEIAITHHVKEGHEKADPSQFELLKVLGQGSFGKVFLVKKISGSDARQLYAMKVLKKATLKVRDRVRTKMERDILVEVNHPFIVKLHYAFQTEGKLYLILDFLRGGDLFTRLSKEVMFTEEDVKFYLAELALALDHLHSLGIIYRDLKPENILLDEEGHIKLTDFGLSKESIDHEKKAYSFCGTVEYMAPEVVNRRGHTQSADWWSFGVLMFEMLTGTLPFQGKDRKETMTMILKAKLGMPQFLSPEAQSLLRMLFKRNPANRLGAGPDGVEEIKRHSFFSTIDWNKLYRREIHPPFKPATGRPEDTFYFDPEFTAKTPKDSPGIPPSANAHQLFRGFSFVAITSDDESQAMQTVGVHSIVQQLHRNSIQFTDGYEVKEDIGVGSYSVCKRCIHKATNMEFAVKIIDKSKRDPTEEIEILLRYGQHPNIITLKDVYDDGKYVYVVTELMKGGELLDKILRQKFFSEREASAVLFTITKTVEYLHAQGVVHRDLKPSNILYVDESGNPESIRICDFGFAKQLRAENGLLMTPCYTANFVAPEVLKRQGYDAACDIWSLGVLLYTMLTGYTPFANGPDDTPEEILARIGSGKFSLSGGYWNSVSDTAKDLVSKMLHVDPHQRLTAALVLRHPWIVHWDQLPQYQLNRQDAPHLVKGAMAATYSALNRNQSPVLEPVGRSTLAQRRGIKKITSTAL

Structure (SMILES)	IC50 [nM]
C[C@@H]1C(=O)N(c2cccc(C#N)c2)c2cnc(Nc3ccc4[nH]nc(C#N)c4c3)nc2N1C1CCCCC1 [compound 157, 5-{[(7R)-5-(3-cyanophenyl)-8-cyclohexyl-7-methyl-6-oxo-5,6,7,8-tetrahydropteridin-2-yl]amino}-1H-indazole-3-carbonitrile]	100 to 1000
C[C@@H]1C(=O)N(c2cccc(C#N)c2)c2cnc(Nc3cc(F)c(O)c(F)c3)nc2N1C1CCCCC1 [compound 158, 3-[(7R)-8-cyclohexyl-2-[(3,5-difluoro-4-hydroxyphenyl)amino]-7-methyl-6-oxo-7,8-dihydropteridin-5(6H)-yl]benzonitrile]	≤ 100
COc1ccc(N2C(=O)[C@@H](C)N(C3CCCCC3)c3nc(Nc4cc(F)c(O)c(F)c4)ncc32)cc1OC [compound 159]	≤ 100
C[C@@H]1C(=O)N(c2cccnc2)c2cnc(Nc3cc(F)c(O)c(F)c3)nc2N1C1CCCCC1 [compound 160, (7R)-8-cyclohexyl-2-[(3,5-difluoro-4-hydroxyphenyl)amino]-7-methyl-5-(pyridin-3-yl)-7,8-dihydropteridin-(5H)-one.]	≤ 100
C[C@@H]1C(=O)N(c2cccc(C#N)c2)c2cnc(Nc3ccc4c(c3)CNC4=O)nc2N1C1CCCCC1 [compound 161]	≤ 100
COc1ccc(N2C(=O)[C@@H](C)N(C3CCCCC3)c3nc(NCc4ccncc4)ncc32)cc1OC [compound 162]	> 1000
COc1ccc(N2C(=O)[C@@H](C)N(C3CCCCC3)c3nc(NCc4cn[nH]c4)ncc32)cc1OC [compound 163]	> 1000
COc1ccc(N2C(=O)[C@@H](C)N(C3CCCCC3)c3nc(Nc4cnc5[nH]ncc5c4)ncc32)cc1C#N [compound 164, 5-[(7R)-8-cyclohexyl-7-methyl-6-oxo-2-(1H-pyrazolo[3,4-b]pyridin-5-ylamino)-7,8-dihydropteridin-5(6H)-yl]-2-methoxybenzonitrile]	≤ 100
COc1ccc(N2C(=O)[C@@H](C)N(C3CCCCC3)c3nc(Nc4ccc5[nH]c(=O)oc5c4)ncc32)cc1C#N [compound 165, 5-[(7R)-8-cyclohexyl-7-methyl-6-oxo-2-[(2-oxo-2,3-dihydro-1,3-benzoxazol-6-yl)amino]-7,8-dihydropteridin-5(6H)-yl]-2-methoxybenzonitrile]	≤ 100
C[C@@H]1C(=O)N(c2cccc(C#N)c2)c2cnc(Nc3ccc4c(=O)[nH]oc4c3)nc2N1C1CCCCC1 [compound 166, 3-[(7R)-8-cyclohexyl-7-methyl-6-oxo-2-[(3-oxo-2,3-dihydro-1,2-benzoxazol-6-yl)amino]-7,8-dihydropteridin-5(6H)-yl]benzonitrile]	≤ 100
C[C@@H]1C(=O)N(c2cccc(C#N)c2)c2cnc(Nc3ccc4[nH]ncc4n3)nc2N1C1CCCCC1 [compound 167, 3-[(7R)-8-cyclohexyl-7-methyl-6-oxo-2-(1H-pyrazolo[4,3-b]pyridin-5-ylamino)-7,8-dihydropteridin-5(6H)-yl]benzonitrile]	100 to 1000
C[C@@H]1C(=O)N(c2cccc(C#N)c2)c2cnc(Nc3ccc(O)cn3)nc2N1C1CCCCC1 [compound 168, 3-[(7R)-8-cyclohexyl-2-[(5-hydroxypyridin-2-yl)amino]-7-methyl-6-oxo-7,8-dihydropteridin-5(6H)-yl]benzonitrile]	100 to 1000
C[C@@H]1C(=O)N(c2cccc(C#N)c2)c2cnc(Nc3cc(F)c4[nH]c(=O)oc4c3)nc2N1C1CCCCC1 [compound 169, 3-[(7R)-8-cyclohexyl-2-[(4-fluoro-2-oxo-2,3-dihydro-1,3-benzoxazol-6-yl)amino]-7-methyl-6-oxo-7,8-dihydropteridin-5(6H)-yl]benzonitrile]	≤ 100
COc1ccc(N2C(=O)[C@@H](C)N(C3CCCCC3)c3nc(NCCc4cn[nH]c4)ncc32)cc1OC [compound 170]	> 1000
C[C@@H]1C(=O)N(c2cccc(C#N)c2)c2cnc(Nc3ccc(CO)cc3)nc2N1C1CCCCC1 [compound 171]	≤ 100

Continued, values first:

IC50 [nM]	Structure (SMILES)
≤ 100	C[C@@H]1C(=O)N(c2cccc(C#N)c2)c2cnc(Nc3cnc4[nH]c(=O)oc4c3)nc2N1C1CCCCC1 [compound 172, 3-[(7R)-8-cyclohexyl-7-methyl-6-oxo-2-[(2-oxo-2,3-dihydro[1,3]oxazolo[4,5-b]pyridin-6-yl)amino]-7,8-dihydropteridin-5(6H)-yl]benzonitrile]
≤ 100	C[C@@H]1C(=O)N(c2ccc(N3CCN(C)CC3)c(C#N)c2)c2cnc(Nc3cc(F)c4[nH]ncc4c3)nc2N1C1CCCCC1 [compound 173, 5-[(7R)-8-cyclohexyl-2-[(7-fluoro-1H-indazol-5-yl)amino]-7-methyl-6-oxo-7,8-dihydropteridin-5(6H)-yl]-2-(4-methylpiperazin-1-yl)benzonitrile]
≤ 100	C[C@@H]1C(=O)N(c2cccc(C#N)c2)c2cnc(Nc3ccc4c(c3)CS(=O)(=O)N4)nc2N1C1CCCCC1 [compound 174, 3-[(7R)-8-cyclohexyl-2-[(2,2-dioxido-1,3-dihydro-2,1-benzothiazol-5-yl)amino]-7-methyl-6-oxo-7,8-dihydropteridin-5(6H)-yl]benzonitrile]
≤ 100	C[C@@H]1C(=O)N(c2ccn(C)c(=O)c2)c2cnc(Nc3cnc4[nH]ncc4c3)nc2N1C1CCCCC1 [compound 175, (7R)-8-cyclohexyl-7-methyl-5-(1-methyl-2-oxo-1,2-dihydropyridin-4-yl)-2-(1H-pyrazolo[3,4-b]pyridin-5-ylamino)-7,8-dihydropteridin-6(5H)-one]
≤ 100	C[C@@H]1C(=O)N(c2ccn(C)c(=O)c2)c2cnc(Nc3cc(F)c4[nH]ncc4c3)nc2N1C1CCCCC1 [compound 176, (7R)-8-cyclohexyl-2-[(7-fluoro-1H-indazol-5-yl)amino]-7-methyl-5-(1-methyl-2-oxo-1,2-dihydropyridin-4-yl)-7,8-dihydropteridin-6(5H)-one]
≤ 100	COC(=O)c1cc(N2C(=O)[C@@H](C)N(C3CCCCC3)c3nc(Nc4ccc5[nH]ncc5c4)ncc32)cs1 [compound 177, methyl 4-[(7R)-8-cyclohexyl-2-(1H-indazol-5-ylamino)-7-methyl-6-oxo-7,8-dihydropteridin-5(6H)-yl]thiophene-2-carboxylate]
100 to 1000	CC1C(=O)N(c2ccccc2)c2cnc(Nc3ccc4c(c3)CC(=O)N4)nc2N1c1ccccc1 (centres unmarked) [compound 179]
≤ 100	C[C@@H]1C(=O)N(c2cccc(C#N)c2)c2cnc(Nc3cc(F)c4[nH]ncc4c3)nc2N1c1ccc(F)cc1 [compound 180]
≤ 100	COc1cccc(N2c3nc(Nc4cc(F)c5[nH]ncc5c4)ncc3N(c3cccc(C#N)c3)C(=O)[C@H]2C)c1 [compound 181, 3-[(7R)-2-[(7-fluoro-1H-indazol-5-yl)amino]-8-(3-methoxyphenyl)-7-methyl-6-oxo-7,8-dihydropteridin-5(6H)-yl]benzonitrile]
≤ 100	COc1ccc(N2c3nc(Nc4cc(F)c5[nH]ncc5c4)ncc3N(c3cccc(C#N)c3)C(=O)[C@H]2C)cc1 [compound 182, 3-[(7R)-2-[(7-fluoro-1H-indazol-5-yl)amino]-8-(4-methoxyphenyl)-7-methyl-6-oxo-7,8-dihydropteridin-5(6H)-yl]benzonitrile]
≤ 100	C[C@@H]1C(=O)N(c2cccc(C#N)c2)c2cnc(Nc3cc(F)c4[nH]ncc4c3)nc2N1c1cccc(F)c1 [compound 183, 3-[(7R)-2-[(7-fluoro-1H-indazol-5-yl)amino]-8-(3-fluorophenyl)-7-methyl-6-oxo-7,8-dihydropteridin-5(6H)-yl]benzonitrile]
≤ 100	C[C@@H]1C(=O)N(c2cccc(C#N)c2)c2cnc(Nc3ccc4[nH]ncc4c3)nc2N1C1CCOCC1 [compound 184, 3-[(7R)-2-(1H-indazol-5-ylamino)-7-methyl-6-oxo-8-(tetrahydro-2H-pyran-4-yl)-7,8-dihydropteridin-5(6H)-yl]benzonitrile]
≤ 100	C[C@@H]1C(=O)N(c2cccc(C#N)c2)c2cnc(Nc3ccc4[nH]ncc4c3F)nc2N1C1CCOCC1 [compound 185, 3-[(7R)-2-[(4-fluoro-1H-indazol-5-yl)amino]-7-methyl-6-oxo-8-(tetrahydro-2H-pyran-4-yl)-7,8-dihydropteridin-5(6H)-yl]benzonitrile]
≤ 100	C[C@@H]1C(=O)N(c2cccc(C#N)c2)c2cnc(Nc3cc(F)c4[nH]ncc4c3)nc2N1C1CCOCC1 [compound 186, 3-[(7R)-2-[(7-fluoro-1H-indazol-5-yl)amino]-7-methyl-6-oxo-8-(tetrahydro-2H-pyran-4-yl)-7,8-dihydropteridin-5(6H)-yl]benzonitrile]
≤ 100	COc1ccc(N2C(=O)[C@@H](C)N(C3CCOCC3)c3nc(Nc4ccc5[nH]nc(F)c5c4)ncc32)cc1OC [compound 187, (7R)-5-(3,4-dimethoxyphenyl)-2-[(3-fluoro-1H-indazol-5-yl)amino]-7-methyl-8-(tetrahydro-2H-pyran-4-yl)-7,8-dihydropteridin-6(5H)-one]
≤ 100	COc1ccc(N2C(=O)[C@@H](C)N(C3CCOCC3)c3nc(Nc4cc(F)c5[nH]ncc5c4)ncc32)cc1OC [compound 188, (7R)-5-(3,4-dimethoxyphenyl)-2-[(7-fluoro-1H-indazol-5-yl)amino]-7-methyl-8-(tetrahydro-2H-pyran-4-yl)-7,8-dihydropteridin-6(5H)-one]
≤ 100	C[C@@H]1C(=O)N(c2cccc(F)c2)c2cnc(Nc3cc(F)c4[nH]ncc4c3)nc2N1C1CCOCC1 [compound 189, (7R)-2-[(7-fluoro-1H-indazol-5-yl)amino]-5-(3-fluorophenyl)-7-methyl-8-(tetrahydro-2H-pyran-4-yl)-7,8-dihydropteridin-6(5H)-one]
